Results: patent publication US20040037022A1, “Aminoalcohol derivatives” (priority 2000, published 2004)

Assays:
anesthetized dog = assay: Effect on the increase in intravesical pressure induced by carbachol in anesthetized dog; assay type: in vivo; conditions: 0.32 mg/kg by intra-duodena route 30 minutes before carbachol (1.8 μg/kg); female Beagle dogs under halothane anesthesia; N = 2; Control 7.0 ± 1.0
Procedure: Effect on the increase in intravesical pressure induced by carbachol in anesthetized dog
Female Beagle dogs weighing 8.0-15.0 kg were fasted for 24 hours and maintained under halothane anesthesia. A 12F Foley catheter was lubricated with water soluble jelly, inserted into the urethral orifice and advanced approximately 10 cm until the balloon tip was placed well inside the bladder. The balloon was then inflated with 5 ml of room air and catheter slowly withdrawn just part the first resistance that is felt at the bladder neck. Urine was completely drained out through the catheter, and 30 ml of biological saline was infused. The catheter was connected to pressure transducer, and intravesical pressure was continuously recorded. The test compound was injected by intra-duodena route at 30 minutes before the administration of carbachol (1.8 μg/kg).

SMILES | melting point [°C] | Increase in intravesical pressure (anesthetized dog) [mmHg]
O=C(Nc1ccc(C[C@@H](CO)NC[C@H](O)COc2ccccc2)cc1)c1ccccc1 [4-(2), N-[4-[(2S)-3-Hydroxy-2-[[(2S)-2-hydroxy-3-phenoxypropyl)amino]propyl]phenyl)benzamide] | 124 to 125 | 
CN(C(=O)c1ccccc1)c1ccc(C[C@@H](CO)NC[C@H](O)COc2ccccc2)cc1 [4-(11), N-[4-[(2S)-3-Hydroxy-2-[[(2S)-2-hydroxy-3-phenoxypropyl]amino]propyl]phenyl]-N-methylbenzamide] | 115 to 116 | 
CCNC(=O)Nc1ccc(C[C@@H](CO)NC[C@H](O)COc2ccccc2)cc1 [Example 2, N-ethyl-N′-[4-[(2S)-3-hydroxy-2-[[(2S)-2-hydroxy-3-phenoxypropyl]amino]-propyl]phenyl]urea] | 129 to 130 | 
O=C(Nc1ccc(C[C@@H](CO)NC[C@H](O)COc2ccccc2)cc1)c1ccc[nH]1 [Test Compound (1), N-[4-[(2S)-3-Hydroxy-2-[[(2S)-2-hydroxy-3-phenoxypropyl)amino]propyl]phenyl]-1H-pyrrole-2-carboxamide] |  | 2.6 ± 0.05
